Source: patent US12358897B2, “Compounds and method of treating COVID-19” (Pfizer Inc., priority 2020, dated 2025)

Target: T1, full-length SARS-CoV-2 3CL protease (Severe acute respiratory syndrome coronavirus 2, UniProt P0DTD1)
T1 construct: measures the activity of full-length SARS-CoV-2 3CL protease
Assay: SARS-CoV-2 Coronavirus 3C Protease FRET Assay (Dabcyl-KTSAVLQ-SGFRKME-Edans substrate)
Assay type: biochemical
Settings: 15 nM enzyme, 25 μM peptide substrate, 60 minutes at 23° C.; Morrison equation fit; read-out: Geometric Mean Ki

| Compound | Ki [nM] |
| --- | --- |
| COc1cccc2[nH]c(C(=O)N[C@@H](CC(C)C)C(=O)N[C@@H](C[C@@H]3CCNC3=O)C(=O)COC(=O)CN(C)C)cc12 [Example 4, (3S)-3-({N-[(4-methoxy-1H-indol-2-yl)carbonyl]-L-leucyl}amino)-2-oxo-4-[(3S)-2-oxopyrrolidin-3-yl]butyl N,N-dimethylglycinate] | 2.98 |
| CCC(=O)OCC(=O)[C@H](C[C@@H]1CCNC1=O)NC(=O)[C@H](CC(C)C)NC(=O)c1cc2c(OC)cccc2[nH]1 [Example 9, (3S)-3-({N-[(4-methoxy-1H-indol-2-yl)carbonyl]-L-leucyl}amino)-2-oxo-4-[(3S)-2-oxopyrrolidin-3-yl]butyl propanoate] | 33.6 |
| COc1cccc2[nH]c(C(=O)N[C@@H](CC(C)C)C(=O)N[C@@H](C[C@@H]3CCNC3=O)C(=O)COC(=O)c3ccccc3C)cc12 [Example 11, (3S)-3-({N-[(4-methoxy-1H-indol-2-yl)carbonyl]-L-leucyl}amino)-2-oxo-4-[(3S)-2-oxopyrrolidin-3-yl]butyl 2-methylbenzoate] | 71.4 |
| COc1cccc2[nH]c(C(=O)N[C@@H](CC(C)C)C(=O)N[C@@H](C[C@@H]3CCNC3=O)C(=O)COC(=O)C3(C)CCCCC3)cc12 [Example 13, (3S)-3-({N-[(4-methoxy-1H-indol-2-yl)carbonyl]-L-leucyl}amino)-2-oxo-4-[(3S)-2-oxopyrrolidin-3-yl]butyl 1-methylcyclohexanecarboxylate] | 139 |
| COc1ccccc1C(=O)OCC(=O)[C@H](C[C@@H]1CCNC1=O)NC(=O)[C@H](CC(C)C)NC(=O)c1cc2c(OC)cccc2[nH]1 [Example 15, (3S)-3-({N-[(4-methoxy-1H-indol-2-yl)carbonyl]-L-leucyl}amino)-2-oxo-4-[(3S)-2-oxopyrrolidin-3-yl]butyl 2-methoxybenzoate] | 147 |
| COc1cccc2[nH]c(C(=O)N[C@@H](CC(C)C)C(=O)N[C@@H](C[C@@H]3CCNC3=O)C(=O)COC(=O)c3ccccc3Cl)cc12 [Example 16, (3S)-3-({N-[(4-methoxy-1H-indol-2-yl)carbonyl]-L-leucyl}amino)-2-oxo-4-[(3S)-2-oxopyrrolidin-3-yl]butyl 2-chlorobenzoate] | 10.5 |
| COc1cccc2[nH]c(C(=O)N[C@@H](CC(C)C)C(=O)N[C@@H](C[C@@H]3CCNC3=O)C(=O)COC(=O)C3(C)CCN(C)CC3)cc12 [Example 17, (3S)-3-({N-[(4-methoxy-1H-indol-2-yl)carbonyl]-L-leucyl}amino)-2-oxo-4-[(3S)-2-oxopyrrolidin-3-yl]butyl 1,4-dimethylpiperidine-4-carboxylate] | 17.5 |
| CC[C@H](C)C(=O)OCC(=O)[C@H](C[C@@H]1CCNC1=O)NC(=O)[C@H](CC(C)C)NC(=O)c1cc2c(OC)cccc2[nH]1 [Example 18, (3S)-3-({N-[(4-methoxy-1H-indol-2-yl)carbonyl]-L-leucyl}amino)-2-oxo-4-[(3S)-2-oxopyrrolidin-3-yl]butyl (2S)-2-methylbutanoate] | 65.7 |
| CC[C@@H](C)C(=O)OCC(=O)[C@H](C[C@@H]1CCNC1=O)NC(=O)[C@H](CC(C)C)NC(=O)c1cc2c(OC)cccc2[nH]1 [Example 19, (3S)-3-({N-[(4-methoxy-1H-indol-2-yl)carbonyl]-L-leucyl}amino)-2-oxo-4-[(3S)-2-oxopyrrolidin-3-yl]butyl (2R)-2-methylbutanoate] | 64.8 |
| COc1cccc2[nH]c(C(=O)N[C@@H](CC(C)C)C(=O)N[C@@H](C[C@@H]3CCNC3=O)C(=O)COC(=O)C3(C)CC3)cc12 [Example 21, (3S)-3-({N-[(4-methoxy-1H-indol-2-yl)carbonyl]-L-leucyl}amino)-2-oxo-4-[(3S)-2-oxopyrrolidin-3-yl]butyl 1-methylcyclopropanecarboxylate] | 104 |
| COc1cccc2[nH]c(C(=O)N[C@@H](CC(C)C)C(=O)N[C@@H](C[C@@H]3CCNC3=O)C(=O)COC(=O)c3cnccc3C)cc12 [Example 23, (3S)-3-({N-[(4-methoxy-1H-indol-2-yl)carbonyl]-L-leucyl}amino)-2-oxo-4-[(3S)-2-oxopyrrolidin-3-yl]butyl 4-methylpyridine-3-carboxylate] | 21.2 |
| COc1cccc2[nH]c(C(=O)N[C@@H](CC(C)C)C(=O)N[C@@H](C[C@@H]3CCNC3=O)C(=O)COC(=O)c3cccnc3C)cc12 [Example 24, (3S)-3-({N-[(4-methoxy-1H-indol-2-yl)carbonyl]-L-leucyl}amino)-2-oxo-4-[(3S)-2-oxopyrrolidin-3-yl]butyl 2-methylpyridine-3-carboxylate] | 14.2 |
| COc1cccc2[nH]c(C(=O)N[C@@H](CC(C)C)C(=O)N[C@@H](C[C@@H]3CCNC3=O)C(=O)COC(=O)[C@H]3CCCN3C)cc12 [Example 27, (3S)-3-({N-[(4-methoxy-1H-indol-2-yl)carbonyl]-L-leucyl}amino)-2-oxo-4-[(3S)-2-oxopyrrolidin-3-yl]butyl 1-methyl-D-prolinate] | 0.0321 |
| COc1cccc2[nH]c(C(=O)N[C@@H](CC(C)C)C(=O)N[C@@H](C[C@@H]3CCNC3=O)C(=O)COC(=O)[C@@H]3CCCN3C)cc12 [Example 28, (3S)-3-({N-[(4-methoxy-1H-indol-2-yl)carbonyl]-L-leucyl}amino)-2-oxo-4-[(3S)-2-oxopyrrolidin-3-yl]butyl 1-methyl-L-prolinate] | 2.47 |
| COc1cccc2[nH]c(C(=O)N[C@@H](CC(C)C)C(=O)N[C@@H](C[C@@H]3CCNC3=O)C(=O)COC(=O)c3cccnc3)cc12 [Example 29, (3S)-3-({N-[(4-methoxy-1H-indol-2-yl)carbonyl]-L-leucyl}amino)-2-oxo-4-[(3S)-2-oxopyrrolidin-3-yl]butyl pyridine-3-carboxylate] | 9.57 |
| COc1cccc2[nH]c(C(=O)N[C@@H](CC(C)C)C(=O)N[C@@H](C[C@@H]3CCNC3=O)C(=O)COC(=O)C3CCN(C)CC3)cc12 [Example 30, (3S)-3-({N-[(4-methoxy-1H-indol-2-yl)carbonyl]-L-leucyl}amino)-2-oxo-4-[(3S)-2-oxopyrrolidin-3-yl]butyl 1-methylpiperidine-4-carboxylate] | 6.13 |
| COc1cccc2[nH]c(C(=O)N[C@@H](CC(C)C)C(=O)N[C@@H](C[C@@H]3CCNC3=O)C(=O)COC(=O)c3ccncc3)cc12 [Example 34, (3S)-3-({N-[(4-methoxy-1H-indol-2-yl)carbonyl]-L-leucyl}amino)-2-oxo-4-[(3S)-2-oxopyrrolidin-3-yl]butyl pyridine-4-carboxylate] | 0.598 |
| COc1cccc2[nH]c(C(=O)N[C@@H](CC(C)C)C(=O)N[C@@H](C[C@@H]3CCNC3=O)C(=O)COC(=O)c3ccccn3)cc12 [Example 35, (3S)-3-({N-[(4-methoxy-1H-indol-2-yl)carbonyl]-L-leucyl}amino)-2-oxo-4-[(3S)-2-oxopyrrolidin-3-yl]butyl pyridine-2-carboxylate] | 4.43 |
| COc1cccc2[nH]c(C(=O)N[C@@H](CC(C)C)C(=O)N[C@@H](C[C@@H]3CCNC3=O)C(=O)COC(=O)[C@H]3CCCCN3C)cc12 [Example 37, (3S)-3-({N-[(4-methoxy-1H-indol-2-yl)carbonyl]-L-leucyl}amino)-2-oxo-4-[(3S)-2-oxopyrrolidin-3-yl]butyl (2R)-1-methylpiperidine-2-carboxylate] | 1.42 |
| COc1cccc2[nH]c(C(=O)N[C@@H](CC(C)C)C(=O)N[C@@H](C[C@@H]3CCNC3=O)C(=O)COC(=O)c3cn(C)nc3C)cc12 [Example 39, (3S)-3-({N-[(4-methoxy-1H-indol-2-yl)carbonyl]-L-leucyl}amino)-2-oxo-4-[(3S)-2-oxopyrrolidin-3-yl]butyl 1,3-dimethyl-1H-pyrazole-4-carboxylate] | 91.9 |
| COc1cccc2[nH]c(C(=O)N[C@@H](CC(C)C)C(=O)N[C@@H](C[C@@H]3CCNC3=O)C(=O)COC(=O)c3ncn(C)c3C)cc12 [Example 40, (3S)-3-({N-[(4-methoxy-1H-indol-2-yl)carbonyl]-L-leucyl}amino)-2-oxo-4-[(3S)-2-oxopyrrolidin-3-yl]butyl 1,5-dimethyl-1H-imidazole-4-carboxylate] | 306 |
| COc1cccc2[nH]c(C(=O)N[C@@H](CC(C)C)C(=O)N[C@@H](C[C@@H]3CCNC3=O)C(=O)COC(=O)c3ccnn3C)cc12 [Example 42, (3S)-3-({N-[(4-methoxy-1H-indol-2-yl)carbonyl]-L-leucyl}amino)-2-oxo-4-[(3S)-2-oxopyrrolidin-3-yl]butyl 1-methyl-1H-pyrazole-5-carboxylate] | 5.25 |
| COc1cccc2[nH]c(C(=O)N[C@@H](CC(C)C)C(=O)N[C@@H](C[C@@H]3CCNC3=O)C(=O)COC(=O)c3ccn(C)n3)cc12 [Example 43, (3S)-3-({N-[(4-methoxy-1H-indol-2-yl)carbonyl]-L-leucyl}amino)-2-oxo-4-[(3S)-2-oxopyrrolidin-3-yl]butyl 1-methyl-1H-pyrazole-3-carboxylate] | 118 |
| COc1cccc2[nH]c(C(=O)N[C@@H](CC(C)C)C(=O)N[C@@H](C[C@@H]3CCNC3=O)C(=O)COC(=O)c3cnn(C)c3)cc12 [Example 44, (3S)-3-({N-[(4-methoxy-1H-indol-2-yl)carbonyl]-L-leucyl}amino)-2-oxo-4-[(3S)-2-oxopyrrolidin-3-yl]butyl 1-methyl-1H-pyrazole-4-carboxylate] | 90.6 |
| COc1cccc2[nH]c(C(=O)N[C@@H](CC(C)C)C(=O)N[C@@H](C[C@@H]3CCNC3=O)C(=O)COC(=O)c3cncn3C)cc12 [Example 45, (3S)-3-({N-[(4-methoxy-1H-indol-2-yl)carbonyl]-L-leucyl}amino)-2-oxo-4-[(3S)-2-oxopyrrolidin-3-yl]butyl 1-methyl-1H-imidazole-5-carboxylate] | 40.7 |
| COc1cccc2[nH]c(C(=O)N[C@@H](CC(C)C)C(=O)N[C@@H](C[C@@H]3CCNC3=O)C(=O)COC(=O)c3c(C)nn(C)c3C)cc12 [Example 48, (3S)-3-({N-[(4-methoxy-1H-indol-2-yl)carbonyl]-L-leucyl}amino)-2-oxo-4-[(3S)-2-oxopyrrolidin-3-yl]butyl 1,3,5-trimethyl-1H-pyrazole-4-carboxylate] | 255 |
